In US5716986A, “Oxaindene derivatives and process for the preparation thereof” (priority 1995, dated 1998):

Assays:
[1] = tested on: Ear oedema induced by arachidonic acid in mice; test: Ear oedema induced by arachidonic acid in mice; type: in vivo, NMRI strain); details: female NMRI mice, topical, 30 minutes before arachidonic acid (3 mg), measured 60 minutes later
Description: 3. Ear oedema induced by arachidonic acid in mice
Inflammation of ear was induced by arachidonic acid using a modified version of the procedure described by Young et al. [Young, J. M., Spires, D. A., Bedord, C. J., Wagner, B., Ballaron, S. J., De Young, L. M.: The mouse ear inflammatory response to topical arachidonic acid, J. Invest. Dermatol. 82, 67-371 (1984)]. The experiments were carried out in female mice from the NMRI strain weighing 25 to 30 g (8 animals/groups). Drugs were applied topically in acetone or ethanol by an automatic pipette in 10 μl volumes to both the inner and outer surfaces of the ear. 30 minutes after drug or vehicle administration both sides of the left ear were brushed with 3 mg of arachidonic acid in 20 μl of acetone and both sides of the right ear were treated with 20 μl of acetone only. 60 minutes later the animals were killed by aether, then a disk of 7 mm diameter was cut off both ears. The mass of each disk was measured by an analytical scale and the mean of the difference of the left and right ears was calculated for every group. ID50 values were determined by plotting the log-dose versus percentage response as compared to vehicle-treated animals.

[2] = molecular target: T1, 5-lipoxygenase (5-LO) enzyme (Homo sapiens, UniProt P09917); test: Determination of 5-LO enzyme activity of human leukocytes by measuring their leukotriene B4 production (whole cell); type: cell-based; details: human PMN leukocytes, LTB4 release, ionophore A-23187 0.001 mM, pH 7.2, 37° C., 15 minutes, RIA; read-out: 5-lipoxygenase enzyme inhibition, in whole cell, IC50
T1 construct: the enzyme in the cytosol was partially purified by ammonium sulphate fractionation; endogenous in cells; host or cells: human polymorphonuclear leukocytes (sonicated, cytosol, ammonium sulphate fraction)
T1 sequence (P09917 1-674): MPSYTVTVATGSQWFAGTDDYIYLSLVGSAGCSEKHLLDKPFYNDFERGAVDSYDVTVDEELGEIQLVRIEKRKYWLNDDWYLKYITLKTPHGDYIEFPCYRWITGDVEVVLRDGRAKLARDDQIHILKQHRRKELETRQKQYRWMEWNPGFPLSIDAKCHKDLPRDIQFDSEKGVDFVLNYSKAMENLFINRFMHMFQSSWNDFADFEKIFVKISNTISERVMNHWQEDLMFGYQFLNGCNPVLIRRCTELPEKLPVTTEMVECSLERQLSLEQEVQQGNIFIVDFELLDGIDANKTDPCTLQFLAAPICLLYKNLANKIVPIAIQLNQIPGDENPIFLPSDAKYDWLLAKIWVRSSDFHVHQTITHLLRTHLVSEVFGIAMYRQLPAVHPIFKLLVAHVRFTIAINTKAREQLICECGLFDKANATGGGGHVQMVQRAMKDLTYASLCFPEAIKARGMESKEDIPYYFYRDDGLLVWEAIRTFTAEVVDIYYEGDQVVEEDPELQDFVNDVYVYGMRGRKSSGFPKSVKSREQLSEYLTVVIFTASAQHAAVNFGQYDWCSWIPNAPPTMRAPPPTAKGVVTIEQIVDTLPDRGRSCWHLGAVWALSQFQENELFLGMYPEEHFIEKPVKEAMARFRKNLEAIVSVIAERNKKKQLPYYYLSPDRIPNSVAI
Excerpt: 2. Determination of 5-LO enzyme activity of human leukocytes by measuring their leukotriene B4 production
The method of Mia et al. was applied [H. Mita, Y. Yui and T. Shida: Effect of AA-861, a 5-lipoxygenase inhibitor on leukotriene synthesis in human polymorphonuclear leukocytes and on cyclooxygenase and 12-lipoxygenase activities in human platelets, Allergy 41, 493-498, (1986)]. The principle of the experiment is as follows: the calcium ionophore A-23187 induces the synthesis and the release of LTB4 by human polymorphonuclear leukocytes. The amount of LTB4 released into the incubation medium reflects the 5-LO enzyme activity of the intact cells. The incubation medium was Hank's balanced medium (HBBS) supplemented with 17 mM of Tris-HCl (pH 7.2), 1.22 mM of CaCl2, 1 mM of MgCl2, 0.001 mM of A-23187 and 10^4 PMN leukocyte per ml reaction mixture. The reaction was started with the addition of ionophore then incubated at 37° C. for 15 minutes. The reaction was stopped by adding 5 mM of EDTA and by chilling the samples in an ice bath. The samples were centrifuged and the amount of LTB4 in the supernatant was determined by radioiimmunoassay (RIA).

[3] = tested on: PAF lethality in mice; test: PAF induced anaphylactic shock test in mice (PAF lethality); type: in vivo; details: Mus musculus, ip, 1 h; male NMRI mice, intraperitoneal, 30 minutes before intravenous PAF 100 μg/kg, mortality at one hour; read-out: PAF lethality in mice ID50
Description: 4. PAF induced anaphylactic shock test in mice
A modification of the method of Young et al. [Young, J. M., Maloney, P. J., Jubb, S. N. and Clark, J. S.: Pharmacological investigation of the mechanism of platelet-activating factor mortality in the mouse, Prostaglandins 30, 545-551 (1985)] was used. The experiments were carried out in male NMRI mice weighing 20-25 g (10 animals/group). The test compounds were suspended in 0.4% methyl cellulose and administered intraperitoneally in a volume of 10 ml/kg. The mice of the control group received only vehicle. 30 minutes later the animals received intravenous PAF in a dose of 100 μg/kg (5 ml/kg). Mortality was determined one hour after PAF administration. Every experiment was repeated three times (n=30). The ratio of mortality of the treated animals was compared to that of the control mice. ID50 values were calculated by linear regression analysis.

[4] = molecular target: T1, 5-lipoxygenase (5-LO) enzyme; test: Measurement of 5-LO enzyme activity in cell free system prepared from human leukocytes (direct); type: biochemical; details: human polymorphonuclear leukocytes, 0.02 mM arachidonic acid, pH 7.5, 37° C., 5 minutes, read-out: 5-lipoxygenase enzyme inhibition, direct, IC50
Description: 1. Measurement of 5-LO enzyme activity in cell free system prepared from human leukocytes
The enzyme activity was measured according to the modified method of Ochi et al. [K. Ochi, T. Yoshimoto, S. Yamamoto, K. Taniguchi, T. Miyamoto: Arachidonate 5-lipoxygenase of guinea pig peritoneal polymorphonuclear leukocytes, J. Biol. Chem. 258, 5754-5758 (1983)]. The principle of the method is as follows: in in vitro systems, during the reaction catalysed by 5-LO 5-hydroxyperoxy-6,8,11,14-eicosatetraenoic acid (5-HPETE) is formed from arachidonic acid, then it is transformed to 5-hydroxy-6,8,11,14-eicosatetraenoic acid (5-HETE). Both 5-HPETE and 5-HETE have absorption maximum at 236 nm, therefore it is possible to determine the activity of 5-LO enzyme by measuring the change of absorption at 236 nm. 5-LO was prepared from human polymorphonuclear leukocytes by a simple purification procedure. The cells were washed and lysed by a sonic disintegrator. The lysate was centrifuged and the enzyme in the cytosol was partially purified by ammonium sulphate fractionation (the enzyme precipitates at 50% saturation). The reaction mixture (50 mM tris-HCl pH=7.5, 2mM CaCl2, 0.1 mM ATP, 0.02 mM arachidonic acid) was incubated at 37° C. for 5 minutes. The reaction was started with the addition of arachidonic acid and stopped by the addition of 10 mM of citric acid. The thus-obtained 5-HPETE and 5-HETE were extracted with a 6:4 mixture of diethyl ether and hexane and the absorption of the organic phase was measured by spectrophotometry at […].

With `CC1=C(C)C(=O)C(CCCCC#CCCCC#CCO)=C(C)C1=O` [AA-861, 2-(12-hydroxy-5,10-dodecadiinyl)-3,5,6-trimethyl-p-benzoquinone, reference compound] the “Arachidonic acid ear oedeme in mice ID50” value [1] was 0.13 mg/ear, the IC50 [2] was 1.1 µM and the ED50 [3] was 58.9 mg/kg. The IC50 [4] was 4.1 µM.

`Cc1c(C)c2c(c(C)c1O)C1CCCCCC1O2` (stereo not drawn) [Example 10, 1,2,4-Trimethyl-4b,6,7,8,9,9a-hexahydro-5H-10-oxabenzo[a]azulene-3-ol] was tested, and the “Arachidonic acid ear oedeme in mice ID50” value [1] was 0.16 mg/ear, the IC50 [2] was 0.07 µM and the ED50 [3] was 22.5 mg/kg. The IC50 [4] was 0.099 µM.

In the case of `Cc1c(C)c2c(c(C)c1O)[C@@H]1CCC[C@@H]1O2` (relative stereo) [Example 2, cis-4,6,7-Trimethyl-2,3,3 a,8a-tetrahydro-1H-8-oxacyclopenta[a]indene-5-ol], the “Arachidonic acid ear oedeme in mice ID50” value [1] is reported as 0.18 mg/ear, the IC50 [2] is reported as 0.05 µM and the ED50 [3] is reported as 16.2 mg/kg. For the same molecule, the IC50 [4] was 0.39 µM.

For `COc1cc2c(cc1O)[C@@H]1CCC[C@@H]1O2` (relative stereo) [Example 6, cis-6-Methoxy-2,3,3a,8a-tetrahydro-1H-8-oxacyclopenta[a]indene-5-ol], the “Arachidonic acid ear oedeme in mice ID50” value [1] was 0.23 mg/ear, the ED50 [3] was 100 mg/kg and the IC50 [4] was 1.2 µM.

In the case of `Cc1c(C)c2c(c(C)c1O)[C@H]1CCC=C[C@H]1O2` (relative stereo) [Example 23, cis-1,3,4-Trimethyl-5a,8,9,9a-tetrahydrodibenzofurane-2-ol], the IC50 [2] is reported as 0.14 µM, the ED50 [3] is reported as 23.2 mg/kg and the IC50 [4] is reported as 0.54 µM.

For `CC(Cc1ccc(O)c(O)c1)C(C)Cc1ccc(O)c(O)c1` (stereo not drawn) [NDGA, 1,4-bis(3,4-dihydroxyphenyl)-2,3-dimethylbutane, reference compound], the “Arachidonic acid ear oedeme in mice ID50” value [1] was > 1.0 mg/ear and the ED50 [3] was 29.2 mg/kg.

For `COc1cc2c(cc1O)[C@@H]1CC=C[C@@H]1O2` (relative stereo) [Example 5, cis-6-Methoxy-3a,8a-dihydro-3H-8-oxacyclopenta[a]indene-5-ol], the “Arachidonic acid ear oedeme in mice ID50” value [1] was 0.18 mg/ear, the IC50 [2] was 0.3 µM and the IC50 [4] was 2.7 µM.

Work on `Cc1c(O)cc2c(c1C)O[C@H]1CCC[C@@H]21` (relative stereo) [Example 4, cis-6,7-Dimethyl-2,3,3a,8a-tetrahydro-1H-8-oxacyclopenta[a]indene-5-ol] yielded an IC50 [2] of 0.3 µM, an ED50 [3] of 65.2 mg/kg and an IC50 [4] of 1.2 µM.

With `CCOc1cc2c(cc1O)[C@@H]1CC=C[C@@H]1O2` (relative stereo) [Example 7, cis-6-Ethoxy-3a,8a-dihydro-3H-8-oxacyclopenta[a]indene-5-ol] the “Arachidonic acid ear oedeme in mice ID50” value [1] was 0.11 mg/ear, the IC50 [2] was 0.3 µM and the ED50 [3] was 27.3 mg/kg. The IC50 [4] was 1.7 µM.

Molecule `Cc1c(O)cc2c(c1C)O[C@H]1C=CC[C@@H]21` (relative stereo) [Example 3, cis-6,7-Dimethyl-3a,8a-dihydro-3H-8-oxacyclopenta[a]indene-5-ol] has an IC50 [2] of 0.5 µM and an IC50 [4] of 5.5 µM.

`CCOc1cc2c(cc1O)[C@@H]1CCC[C@@H]1O2` (relative stereo) [Example 8, cis-6-Ethoxy-2,3,3a,8a-tetrahydro-1H-8-oxa-cyclopenta[a]indene-5-ol] gave an ED50 [3] of 45 mg/kg and an IC50 [4] of 0.49 µM.

In the case of `O=C1CCN(c2ccccc2)N1` [Phenidone, 1-phenyl-3-pyrazolidinone, reference compound], the “Arachidonic acid ear oedeme in mice ID50” value [1] is reported as 0.18 mg/ear and the ED50 [3] is reported as 14.2 mg/kg.

`Cc1c(C)c2c(c(C)c1O)[C@@H]1CC=C[C@@H]1O2` (relative stereo) [Example 1, cis-4,6,7-Trimethyl-3a,8a-dihydro-3H-8-oxacyclopenta[a]indene-5-ol] was tested, and the IC50 [2] was 0.68 µM, the ED50 [3] was 51.7 mg/kg and the IC50 [4] was 0.074 µM.
